Two molecules from US7094420B2, “Methods of using isomer enriched conjugated linoleic acid compositions” (Natural ASA, priority 1998, dated 2006) can be followed below.

This test in a line: Mouse feeding trial of diets with different ratios and amounts of CLA isomers. Type of test: in vivo, ICR mice. As to the method: Based on the results of Example 1, the Inventors believe that the t10,c12 isomer is an active isomer.
The trial was conducted with 84 ICR mice purchased from Harlan Sprague Dawley (Madison, Wis.). The diets were blended using the basal diet, sugar, corn oil and one or a blend of isomers of conjugated linoleic acid (expressed as percent of diet). Each treatment consisted of 2 pens of 3 mice. Mice had food and water ad libitum. Food consumption was monitored daily and mice were weighed every other day when bedding was changed. At three weeks of feeding the diet, mice were euthanized by CO2 and final body weights were taken. Mice were then necropsied and fat pads were weighed. Mice were also analyzed for total body fat. Mice were freeze dried and ground. Duplicate samples were analyzed by proximate analysis (ether extraction, ash, kjeldahl, and moisture).

Regarding `CCCCC/C=C\C=C\CCCCCCCCC(=O)O` [t10,c12 CLA, t10,c12 octadecadienoic acid], under “mice fed only t10,c12 CLA vs control mice not receiving CLA”, the “body fat compared to control mice” value was “reduced body fat”. For the setting “mice fed t10,c12 isomer only”, the reduction in growth is on record as 10%.

For the molecule `CCCCCC/C=C/C=C\CCCCCCCC(=O)O` [c9,t11 CLA, c9,t11 octadecadienoic acid], for the setting “mice fed only c9,t11 CLA, no t10,c12 present, linear”, the improvement in growth is recorded as 16%. For the same molecule, the “growth, rate of gain, and feed conversion” value (mice receiving only c9,t11 CLA) was “increased growth, rate of gain, and feed conversion”.
